biological target: GTPase HRas (Homo sapiens) (UniProt P01112); experiment: Ras wild-type GTP-binding inhibitors, SAR follow-up, biochemical, pyrazoline analogs, multiplex bead flow cytometry (AID 2047); conditions: GST-Ras beads, Bodipy-FL-GTP binding, Ki calculated from EC50
Sequence (P01112 whole entry, looked up): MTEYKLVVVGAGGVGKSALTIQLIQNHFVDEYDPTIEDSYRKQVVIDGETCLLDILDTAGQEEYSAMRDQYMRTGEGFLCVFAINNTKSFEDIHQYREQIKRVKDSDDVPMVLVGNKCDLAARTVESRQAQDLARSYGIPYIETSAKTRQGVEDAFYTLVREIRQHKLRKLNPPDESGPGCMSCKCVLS

Q: How did the Ki turn out when `COc1ccc(C2=NN(c3ccccc3F)C(c3ccc(F)cc3)C2)cc1` (stereo unspecified) was run?
A: The Ki was 2.11 µM.

Q: Which Ki does the source give for `NS(=O)(=O)c1ccc(N2N=C(c3ccc(Cl)cc3)CC2c2ccccc2)cc1` (stereo unspecified) here?
A: Its Ki is 0.01 µM.

Q: Which Ki does the source give for `COc1ccc(C2=NN(c3ccccc3)C(c3ccccc3C(F)(F)F)C2)cc1` (stereo unspecified) here?
A: The Ki was 2.77 µM.

Q: `COc1ccc(C2CC(c3ccc(Cl)cc3)=NN2c2ccccc2)cc1OC` (stereo unspecified) was tested. Which Ki did it give?
A: The Ki was 0.01 µM.

Q: For `COc1ccc(C2CC(c3ccccc3)=NN2c2ccc(Cl)c(C(=O)O)c2)cc1` (stereo unspecified), which Ki is on record?
A: The Ki was 0.16 µM.

Q: For `CN(C)c1ccc(C2CC(c3ccccc3)=NN2c2ccccc2)cc1` (stereo unspecified), which Ki is on record?
A: The Ki was 0.01 µM.
